Like-named read-outs stand apart in the source and are kept apart here.
Tests used:
human BCRP = biological target: T1, human BCRP (Homo sapiens, UniProt Q9UNQ0); experiment: BCRP inhibition, bidirectional permeability of prazosin in MDCKII-BCRP monolayers; details: prazosin probe; inhibitor 1 μM Ko134 (positive control)
T1 sequence (Q9UNQ0 1-655): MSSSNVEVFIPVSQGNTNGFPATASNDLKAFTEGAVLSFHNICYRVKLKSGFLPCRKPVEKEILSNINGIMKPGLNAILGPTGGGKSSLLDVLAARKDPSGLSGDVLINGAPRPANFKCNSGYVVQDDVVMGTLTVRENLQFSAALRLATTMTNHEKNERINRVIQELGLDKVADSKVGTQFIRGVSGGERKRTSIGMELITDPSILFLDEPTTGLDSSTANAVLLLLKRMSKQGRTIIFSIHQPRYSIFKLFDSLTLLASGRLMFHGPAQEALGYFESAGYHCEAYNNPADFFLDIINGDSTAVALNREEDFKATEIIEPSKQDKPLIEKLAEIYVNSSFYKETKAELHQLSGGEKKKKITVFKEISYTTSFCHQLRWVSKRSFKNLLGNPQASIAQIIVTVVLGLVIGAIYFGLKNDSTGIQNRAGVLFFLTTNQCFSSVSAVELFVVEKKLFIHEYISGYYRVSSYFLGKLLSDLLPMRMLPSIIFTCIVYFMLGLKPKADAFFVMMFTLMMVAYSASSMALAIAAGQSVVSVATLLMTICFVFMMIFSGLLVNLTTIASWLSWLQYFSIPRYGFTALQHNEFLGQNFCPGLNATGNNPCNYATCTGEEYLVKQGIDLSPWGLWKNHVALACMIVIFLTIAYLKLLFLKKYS

CYP 3A4 = experiment: CYP mRNA induction in cryopreserved human hepatocytes
CYP 2B6 = experiment: as above
CYP 1A2 = experiment: as above
[1] = system: human colon cancer xenograft; experiment: Human colon cancer xenograft-bearing mice; assay type: in vivo; details: single dose, oral or intraperitoneal, compared to vehicle-treated control cohorts
human cancer cells = experiment: Viability of human cancer cells at 72 hours post-treatment; assay type: cell-based; details: change in potency relative to ONC201; viability at 72 hours post-treatment
Procedure: A number of exemplary analogs of compound (1) were prepared based on the syntheses described here. For each of these compounds, the viability of human cancer cells at 72 hours post-treatment with the compound was measured.

human MDR1 = human MDR1 (Homo sapiens, UniProt P08183); details: digoxin probe; inhibitor 10 μM Valspodar (positive control)
Sequence of human MDR1 (P08183 whole entry): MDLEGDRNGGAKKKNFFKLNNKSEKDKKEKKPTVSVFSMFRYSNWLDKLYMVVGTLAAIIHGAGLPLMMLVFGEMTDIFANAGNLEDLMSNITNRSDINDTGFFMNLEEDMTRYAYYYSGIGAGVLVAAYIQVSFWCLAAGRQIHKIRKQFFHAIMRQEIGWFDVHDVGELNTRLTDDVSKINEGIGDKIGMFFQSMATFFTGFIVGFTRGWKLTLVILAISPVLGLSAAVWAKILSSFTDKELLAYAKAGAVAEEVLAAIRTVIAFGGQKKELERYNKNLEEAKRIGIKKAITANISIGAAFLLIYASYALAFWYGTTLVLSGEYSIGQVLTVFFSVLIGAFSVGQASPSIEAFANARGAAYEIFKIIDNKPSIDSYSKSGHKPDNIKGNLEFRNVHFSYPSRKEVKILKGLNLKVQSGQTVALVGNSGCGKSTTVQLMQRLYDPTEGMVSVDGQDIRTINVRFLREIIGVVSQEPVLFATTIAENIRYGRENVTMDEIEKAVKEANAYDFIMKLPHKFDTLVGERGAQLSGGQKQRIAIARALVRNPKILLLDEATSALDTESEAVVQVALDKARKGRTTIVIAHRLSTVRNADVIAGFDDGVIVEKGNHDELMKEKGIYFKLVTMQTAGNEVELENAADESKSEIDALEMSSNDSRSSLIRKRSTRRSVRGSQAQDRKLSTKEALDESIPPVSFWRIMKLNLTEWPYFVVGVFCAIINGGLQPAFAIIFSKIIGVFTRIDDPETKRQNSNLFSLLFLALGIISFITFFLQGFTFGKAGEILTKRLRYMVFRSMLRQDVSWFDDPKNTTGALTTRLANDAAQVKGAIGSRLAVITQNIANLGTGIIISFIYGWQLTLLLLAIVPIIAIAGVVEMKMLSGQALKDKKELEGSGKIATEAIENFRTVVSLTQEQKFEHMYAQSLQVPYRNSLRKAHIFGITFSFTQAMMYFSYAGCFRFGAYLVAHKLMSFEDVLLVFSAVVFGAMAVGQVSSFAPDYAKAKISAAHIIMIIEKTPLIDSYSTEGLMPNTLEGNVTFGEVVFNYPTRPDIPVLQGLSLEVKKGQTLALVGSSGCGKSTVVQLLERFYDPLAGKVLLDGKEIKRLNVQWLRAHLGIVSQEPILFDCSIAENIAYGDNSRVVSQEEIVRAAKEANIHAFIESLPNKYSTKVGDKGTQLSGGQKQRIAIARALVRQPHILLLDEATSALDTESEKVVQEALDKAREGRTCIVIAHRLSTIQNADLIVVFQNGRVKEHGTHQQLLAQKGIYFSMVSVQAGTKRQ

[2] = donor CDP, NC: flumazenil (25 μM)
[3] = donor two, NC: flumazenil (25 μM)

## CC(C)C[C@H]1c2[nH]c3ccccc3c2C[C@H]2C(=O)N[C@@H](CCC(=O)OC(C)(C)C)C(=O)N21 [Ko134, reference compound]
Human BCRP
  % Inhibition (Efflux Ratio): 98.7%

## CCOC(=O)c1ncn2c1CN(C)C(=O)c1cc(F)ccc1-2 [flumazenil]
CYP 3A4
  mRNA Induction Fold: 1.37 fold
CYP 3A4; CYP 3A4, donor CDP, NC: flumazenil (25 μM)
  mRNA Induction Fold: 1.03 fold
CYP 3A4; CYP 3A4, donor two, NC: flumazenil (25 μM)
  mRNA Induction Fold: 0.93 fold
CYP 2B6; [2]
  mRNA Induction Fold: 1.16 fold
CYP 2B6; [3]
  mRNA Induction Fold: 1.27 fold
CYP 1A2; [2]
  mRNA Induction Fold: 1.16 fold
CYP 1A2; donor one, NC: flumazenil (25 μM)
  mRNA Induction Fold: 1.31 fold
CYP 1A2; [3]
  mRNA Induction Fold: 1.34 fold

## O=C1C2=C(CCN(Cc3ccccc3)C2)N2CCN=C2N1Cc1ccc(C(F)(F)F)cc1 [ONC212]
[1]
  tumor volume: significant reduction of tumor volume

## O=C1C2=C(CCN(Cc3ccccc3)C2)N2CCN=C2N1Cc1cc(F)cc(F)c1 [ONC210]
Human cancer cells
  Relative Potency: A (A Indicates a potency increase of >2-fold of ONC201)

## O=C1C2=C(CCN(Cc3ccccc3)C2)N2CCN=C2N1CC1CCON1 (stereo not drawn) [ONC222]
Human cancer cells
  Relative Potency: B (B Indicates potency that is within 2-fold of ONC201)

## O=C1C2=C(CCN(Cc3ccccc3)C2)N2CCN=C2N1Cc1ccc(Cl)c(Cl)c1 [ONC211]
Human cancer cells
  Relative Potency: A (A Indicates a potency increase of >2-fold of ONC201)

## O=C1C2=C(CCN(Cc3ccccc3)C2)N2CCN=C2N1Cc1ccccc1F [ONC217]
Human cancer cells
  Relative Potency: B (B Indicates potency that is within 2-fold of ONC201)

## C/C=C/C[C@@H](C)C(=O)[C@H]1C(=O)N[C@@H](C(C)C)C(=O)N(C)CC(=O)N(C)[C@@H](CC(C)C)C(=O)N[C@@H](C(C)C)C(=O)N(C)[C@@H](CC(C)C)C(=O)N[C@@H](C)C(=O)N[C@H](C)C(=O)N(C)[C@@H](CC(C)C)C(=O)N(C)[C@@H](CC(C)C)C(=O)N(C)[C@@H](C(C)C)C(=O)N1C [Valspodar, reference compound]
Human MDR1
  % Inhibition (Efflux Ratio): 96.8%

## CCC1(c2ccccc2)C(=O)NC(=O)NC1=O [phenobarbital]
CYP 2B6; donor CDP, PC: phenobarbital (750 μM)
  mRNA Induction Fold: 8.56 fold
CYP 2B6; donor one, PC: phenobarbital (750 μM)
  mRNA Induction Fold: 14.38 fold
CYP 2B6; donor two, PC: phenobarbital (750 μM)
  mRNA Induction Fold: 8.98 fold

## COc1ccc2[nH]c([S+]([O-])Cc3ncc(C)c(OC)c3C)nc2c1 (stereo not drawn) [omeprazole]
CYP 1A2; donor CDP, PC: omeprazole (50 μM)
  mRNA Induction Fold: 28.71 fold
CYP 1A2; donor one, PC: omeprazole (50 μM)
  mRNA Induction Fold: 35.53 fold
CYP 1A2; donor two, PC: omeprazole (50 μM)
  mRNA Induction Fold: 31.06 fold
